From publication PMC10095932 (Molecules, 2023)
Where a SMILES comes first, the peptide text is derived from it. Bridges are numbered along the chain shown (N, C = ends).

Legend:
[1] = target: T1, NEP (Homo sapiens, UniProt P08473); assay: Stability to neutral endopeptidase 24.11 (NEP); format: in vitro ADME; details: 3 h; 100 μL of 500 μM peptide, 500 ng NEP, 100 mM Tris.HCl, 150 mM NaCl, pH 7.4, 37 °C, RP-HPLC peak height
T1 construct: purchased R&D Systems (Minneapolis, MN, USA)
Method: NEP and plasmin stability: About 100 μL of 500 μM peptide was incubated with 500 ng NEP (activity 400 pmol min^−1 μg^−1) or 10 μg plasmin (0.51 U mg^−1, 0.51 μmol min^−1 mg^−1) in 100 mM Tris.HCl and 150 mM NaCl (pH 7.4) at 37 °C. Then, 50 μL aliquots were removed at designated times, quenched by heating to 100 °C for 4 min, and stored at −20 °C until subjected to RP-HPLC analysis.

[2] = target: T2, human NPR-A (Homo sapiens, UniProt P16066); assay: cGMP ALPHAscreen, cGMP production in HEK 293 cells transiently overexpressing hNPR-A; format: cell-based; details: HEK 293 cells overexpressing hNPR-A
T2 construct: expressed in transfected cells; host or cells: HEK 293 cells, transient, Lipofectamine 2000
T2 sequence (P16066 33-1061): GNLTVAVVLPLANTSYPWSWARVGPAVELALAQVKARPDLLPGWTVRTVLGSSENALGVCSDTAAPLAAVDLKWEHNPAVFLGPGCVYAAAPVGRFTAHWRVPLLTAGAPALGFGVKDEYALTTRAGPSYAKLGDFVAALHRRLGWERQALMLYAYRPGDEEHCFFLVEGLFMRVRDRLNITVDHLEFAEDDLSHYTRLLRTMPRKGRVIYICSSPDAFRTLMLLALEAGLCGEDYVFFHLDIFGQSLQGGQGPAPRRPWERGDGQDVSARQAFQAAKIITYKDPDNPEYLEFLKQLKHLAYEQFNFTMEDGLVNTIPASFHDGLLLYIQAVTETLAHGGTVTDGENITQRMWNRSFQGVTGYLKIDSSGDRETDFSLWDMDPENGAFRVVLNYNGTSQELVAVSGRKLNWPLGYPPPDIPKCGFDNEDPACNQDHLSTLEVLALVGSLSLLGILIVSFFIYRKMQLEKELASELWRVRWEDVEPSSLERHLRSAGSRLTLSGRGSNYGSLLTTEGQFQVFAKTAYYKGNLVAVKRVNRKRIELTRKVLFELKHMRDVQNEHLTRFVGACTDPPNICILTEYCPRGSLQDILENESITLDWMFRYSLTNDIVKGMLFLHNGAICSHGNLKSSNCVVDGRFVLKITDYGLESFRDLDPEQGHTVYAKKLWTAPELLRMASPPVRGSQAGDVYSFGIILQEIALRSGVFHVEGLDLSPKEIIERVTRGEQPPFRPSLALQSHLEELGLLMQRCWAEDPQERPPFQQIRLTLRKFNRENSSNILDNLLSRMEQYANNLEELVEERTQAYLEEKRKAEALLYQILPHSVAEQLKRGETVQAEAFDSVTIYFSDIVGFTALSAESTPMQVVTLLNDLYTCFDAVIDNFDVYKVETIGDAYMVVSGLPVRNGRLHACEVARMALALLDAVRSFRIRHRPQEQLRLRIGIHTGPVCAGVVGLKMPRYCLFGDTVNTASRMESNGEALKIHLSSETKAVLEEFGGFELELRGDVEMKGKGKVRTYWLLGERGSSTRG
Method: Cells were cultured at 5% CO2 and 37 °C. HEK 293 cells were cultured in high glucose DMEM (Gibco, Carlsbad, CA, USA) supplemented with 10% FBS, and 1% penicillin/streptomycin. HEK 293 cells were seeded in media lacking penicillin/streptomycin 24 to 48 h pre-transfection. PC12 cells were cultured in high glucose DMEM (Gibco) supplemented with 10% FBS and 1% penicillin/streptomycin.
HEK 293 cells were transfected using the lipofectamine 2000 transfection protocol (Invitrogen). Cells (95% confluence) were transfected with 45% pcDNA3.1/hNPR-A, 45% pcDNA3.1, and 10% pEGFP-NI to the optimal DNA concentration specified in the protocol. The co-transfection with pEGFP-NI plasmid allowed the determination of the transfection efficiency. This was assessed by the estimation of the number of GFP-expressing cells using an Olympus IX70 inverted fluorescence microscope. Transfected cells were used for assay purposes within 24 h.
The cGMP ALPHAscreen was performed using the ALPHAscreen Protein A detection kit and the biotinylated cGMP supplement (Perkin Elmer, Waltham, MA, USA) with rabbit anti-cGMP polyclonal antibody (Biovision, Mountain View, CA, USA). Cells were detached from the flask and the resulting pellet was resuspended in stimulation buffer (HBSS supplemented with 0.1% w/v BSA and 1 mM IBMX at 37 °C). Cells were added to a white 384-well Optiplate (Perkin Elmer, Waltham, USA) to 30,000 cells per well for HEK 293 cells and 10,000 cells per well for PC12 cells. Cells were incubated with different concentrations of test peptides (concentration range of 1 × 10^−5 to 1 × 10^−11 M in stimulation buffer) at 37 °C for 30 min. Cells were lysed with lysis buffer (1 M HEPES, 0.3% Tween-20, 1% BSA in H2O, pH 7.4). Then 5 μL acceptor-bead mix was added to each well under subdued lighting conditions, followed by 5 μL of donor-bead mix. Plates were incubated for ~12 h, slowly shaking at room temperature. After incubation, the ALPHAscreen signal was measured using an EnVision plate reader (Perkin Elmer). The standard curve consisted of cGMP in a concentration range of 1 × 10^−6 to 1 × 10^−12 M. All data points were acquired in triplicate and were analyzed using GraphPad Prism 5.0 software (GraphPad Software, Inc., San Diego, CA, USA).

T1 sequence (P08473 whole entry): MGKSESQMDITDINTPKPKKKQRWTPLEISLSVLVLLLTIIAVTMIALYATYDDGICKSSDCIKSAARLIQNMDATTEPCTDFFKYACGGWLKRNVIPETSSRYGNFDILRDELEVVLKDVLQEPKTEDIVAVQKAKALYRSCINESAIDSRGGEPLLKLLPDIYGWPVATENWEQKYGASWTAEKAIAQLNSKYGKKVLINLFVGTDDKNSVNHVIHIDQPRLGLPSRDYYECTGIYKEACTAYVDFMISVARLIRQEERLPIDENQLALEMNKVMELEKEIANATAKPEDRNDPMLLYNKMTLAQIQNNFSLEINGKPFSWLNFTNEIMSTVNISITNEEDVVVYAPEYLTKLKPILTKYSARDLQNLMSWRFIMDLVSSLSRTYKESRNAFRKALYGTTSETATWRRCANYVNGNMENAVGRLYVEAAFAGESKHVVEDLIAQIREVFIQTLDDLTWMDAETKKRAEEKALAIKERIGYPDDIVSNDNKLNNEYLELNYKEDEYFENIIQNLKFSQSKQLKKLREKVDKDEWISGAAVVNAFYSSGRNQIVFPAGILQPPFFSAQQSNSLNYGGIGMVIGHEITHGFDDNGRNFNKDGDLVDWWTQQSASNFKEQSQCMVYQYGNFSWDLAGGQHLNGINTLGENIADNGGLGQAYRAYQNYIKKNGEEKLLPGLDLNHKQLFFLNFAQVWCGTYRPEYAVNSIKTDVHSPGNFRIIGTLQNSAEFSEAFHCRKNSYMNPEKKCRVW

CC[C@H](C)[C@H](NC(=O)[C@H](CCCCN)NC(=O)[C@H](CO)NC(=O)[C@H](CC(=O)O)NC(=O)[C@@H](N)CO)C(=O)NCC(=O)N[C@@H](CC(N)=O)C(=O)NCC(=O)N[C@H]1CSSC[C@@H](C(=O)N[C@@H](CC(N)=O)C(=O)N[C@@H](CCCNC(=N)N)C(=O)N[C@H](C(=O)N[C@@H](CCSC)C(=O)N[C@@H](CCC(N)=O)C(=O)N[C@@H](CC(N)=O)C(=O)N2CCC[C@H]2C(=O)N2CCC[C@H]2C(=O)N[C@@H](CCCCN)C(=O)N[C@@H](CCCCN)C(=O)N[C@@H](Cc2ccccc2)C(=O)N[C@@H](CO)C(=O)NCC(=O)N[C@@H](CCC(=O)O)C(=O)O)[C@@H](C)CC)NC(=O)CNC(=O)[C@H](CC(C)C)NC(=O)CNC(=O)[C@H](CO)NC(=O)[C@H](C(C)C)NC(=O)[C@H](CO)NC(=O)CNC(=O)[C@H]([C@@H](C)CC)NC(=O)[C@H](CCCNC(=N)N)NC(=O)[C@H](CC(=O)O)NC(=O)[C@H](CC(C)C)NC(=O)[C@@H]2CCCN2C(=O)[C@H](Cc2ccccc2)NC(=O)CNC(=O)[C@H](Cc2ccccc2)NC1=O [TNPc] (H-SDSKIGNGCFGFPLDRIGSVSGLGCNRIMQNPPKKFSGE-OH; disulfide 9-25)
state after incubation with NEP [1]: remained intact
Emax at 10 µM ([2]; HEK293, read-out: cGMP production, % of the maximum response (compared with DNP, hANP, hBNP), at 10 μM): ~30%
EC50 ([2]; 30 min at 37 °C, cGMP ALPHAscreen, three separate experiments in triplicate, read-out: hNPR-A EC50 (95% CI), potency to stimulate cGMP production): > 10 µM
